This note sets out measurements from PubChem BioAssay AID248 (DTP/NCI, 2004).

The test system of this test is L1210 leukemia ip in BDF1 mice, survival T/C. The test can be described thus: NCI In Vivo Anticancer Drug Screen. Data for tumor model L1210 Leukemia (intraperitoneal) in B6D2F1 (BDF1) mice. To be noted: endpoint: mean survival time, higher = longer survival. The essentials: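 Survival endpoint. Drug-treated group vs vehicle group, expressed as T divided by C. Tumor passaged by transplantation.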

[1] abbreviates: dose: 100.0 mg/kg/injection, schedule: Q01DX001 (ip), vehicle: other.
The mark [2] stands for this setting: dose: 200.0 mg/kg/injection, schedule: Q01DX001 (ip), vehicle: other.
The mark [3] stands for this setting: dose: 400.0 mg/kg/injection, schedule: Q01DX001 (ip), vehicle: other.
The mark [4] stands for this setting: dose: 100.0 mg/kg/injection, schedule: Q01DX001 (ip), vehicle: saline.
The mark [5] stands for this setting: dose: 200.0 mg/kg/injection, schedule: Q01DX001 (ip), vehicle: saline.
Setting [6] is: dose: 400.0 mg/kg/injection, schedule: Q01DX001 (ip), vehicle: saline.
Where [7] appears, read: dose: 100.0 mg/kg/injection, schedule: Q04DX002 (ip), vehicle: Klucel (hydroxypropylcellulose) (HPC).
Where [8] appears, read: dose: 200.0 mg/kg/injection, schedule: Q04DX002 (ip), vehicle: Klucel (hydroxypropylcellulose) (HPC).
Setting [9] is: dose: 200.0 mg/kg/injection, schedule: Q01DX001 (ip), vehicle: carboxymethylcellulose (CMC).
The mark [10] stands for this setting: dose: 100.0 mg/kg/injection, schedule: Q04DX003 (ip), vehicle: saline with Tween-80.
The mark [11] stands for this setting: dose: 200.0 mg/kg/injection, schedule: Q04DX003 (ip), vehicle: saline with Tween-80.
Where [12] appears, read: dose: 100.0 mg/kg/injection, schedule: Q01DX009 (ip), vehicle: Klucel (hydroxypropylcellulose) (HPC).
The mark [13] stands for this setting: dose: 100.0 mg/kg/injection, schedule: Q01DX009 (ip), vehicle: saline with Tween-80.
Where [14] appears, read: dose: 200.0 mg/kg/injection, schedule: Q01DX009 (ip), vehicle: saline with Tween-80.
The mark [15] stands for this setting: dose: 100.0 mg/kg/injection, schedule: Q04DX003 (ip), vehicle: Klucel (hydroxypropylcellulose) (HPC).
The mark [16] stands for this setting: dose: 200.0 mg/kg/injection, schedule: Q01DX009 (ip), vehicle: Klucel (hydroxypropylcellulose) (HPC).
Setting [17] is: dose: 200.0 mg/kg/injection, schedule: Q04DX003 (ip), vehicle: Klucel (hydroxypropylcellulose) (HPC).
Setting [18] is: dose: 400.0 mg/kg/injection, schedule: Q01DX009 (ip), vehicle: Klucel (hydroxypropylcellulose) (HPC).
Setting [19] is: dose: 400.0 mg/kg/injection, schedule: Q04DX003 (ip), vehicle: Klucel (hydroxypropylcellulose) (HPC).

Several values for one entry are separate records, joined by “and”; a condition that tells them apart may be missing. Equal entries are not always repeated. Inconclusive results and toxic doses are left out.

Turning to `Cc1ccc(N(CCCl)CCCl)cc1NC(=O)c1ccccc1`, the T/C under setting [1] is 102 % of control, the T/C under setting [2] is 102 % of control and the T/C under setting [3] is 109 % of control.

As to `CCCCN1CCC(N)=NC1=O`, the T/C is, setting by setting: (dose: 100.0 mg/kg/injection, schedule: Q01DX Z (ip), vehicle: saline) 100 % of control; (dose: 200.0 mg/kg/injection, schedule: Q01DX Z (ip), vehicle: saline) 100 % of control.

`CC(C)(C)C(=O)Nc1ccc(S(=O)(=O)c2ccc(NC(=O)C(C)(C)C)cc2)cc1`: the T/C reads like this: (dose: 50.0 mg/kg/injection, schedule: Q01DX001 (ip), vehicle: saline) 95 % of control; under setting [4], 93 % of control; under setting [5], 93 % of control; under setting [6], 98 % of control.

As to `CCC(C)C(C=NCC(CCN1CCOCC1)(c1ccc2ccccc2c1)C(C)CC)(CCN1CCOCC1)c1ccc2ccccc2c1` (stereo not drawn), the T/C (dose: 50.0 mg/kg/injection, schedule: Q04DX002 (ip), vehicle: Klucel (hydroxypropylcellulose) (HPC)) was 100 % of control; the T/C under setting [7] was 92 % of control; the T/C under setting [8] was 92 % of control.

Consider `Cc1nc(SCc2ccc(Cl)cc2)nc(N2CC2)c1Br`, for which the T/C reads like this: (dose: 59.0 mg/kg/injection, schedule: Q01DX Z (ip), vehicle: methylcellulose (MC)) 94 % of control; (dose: 88.0 mg/kg/injection, schedule: Q01DX Z (ip), vehicle: methylcellulose (MC)) 86 % of control; (dose: 200.0 mg/kg/injection, schedule: Q01DX Z (ip), vehicle: methylcellulose (MC)) 95 % of control.

With `N#CCc1ccc(C(=O)O)cc1`, the T/C (dose: 100.0 mg/kg/injection, schedule: Q01DX001 (ip), vehicle: carboxymethylcellulose (CMC)) was 106 % of control and the T/C under setting [9] was 92 % of control.

For the compound `CCCCCCCCCCC1CCC(CCCCCCCCCC)CC1` (stereo not drawn), the T/C was 106 % of control under setting [1], 107 % of control under setting [2] and 91 % of control under setting [3].

In the case of `COc1c(-c2cc(C)nc(NC#N)n2)c(O)cc2occc12`, the T/C under setting [7] was 95 % of control; the T/C under setting [8] was 95 % of control; the T/C (dose: 400.0 mg/kg/injection, schedule: Q04DX002 (ip), vehicle: Klucel (hydroxypropylcellulose) (HPC)) was 98 % of control.

As for `O=S(=O)(O)C(O)c1ccc(Cl)cc1Cl` (stereo not drawn), the T/C is 102 % of control (dose: 100.0 mg/kg/injection, schedule: Q04DX003 (ip), vehicle: saline); 102 % of control (dose: 200.0 mg/kg/injection, schedule: Q04DX003 (ip), vehicle: saline); 107 % of control (dose: 400.0 mg/kg/injection, schedule: Q04DX003 (ip), vehicle: saline).

As for `CCOC(=O)c1[nH]c(-c2ccc(OC)cc2)c(C(=O)OCC)c1-c1ccccc1`, the T/C by setting is: (dose: 100.0 mg/kg/injection, schedule: Q01DX001 (ip), vehicle: Klucel (hydroxypropylcellulose) (HPC)) 88 % of control; (dose: 200.0 mg/kg/injection, schedule: Q01DX001 (ip), vehicle: Klucel (hydroxypropylcellulose) (HPC)) 108 % of control; (dose: 400.0 mg/kg/injection, schedule: Q01DX001 (ip), vehicle: Klucel (hydroxypropylcellulose) (HPC)) 114 % of control.

Turning to `CCN(CC)C(=O)Nc1cccc(OC(=O)NC)c1`, the T/C under setting [10] is 99 % of control and the T/C under setting [11] was 98 % of control.

`CCOc1ccc2nc(Cl)sc2c1`: the T/C was 92 % of control (dose: 50.0 mg/kg/injection, schedule: Q01DX009 (ip), vehicle: Klucel (hydroxypropylcellulose) (HPC)); 93 % of control (dose: 75.0 mg/kg/injection, schedule: Q04DX003 (ip), vehicle: Klucel (hydroxypropylcellulose) (HPC)); 94 % of control under setting [12]; 96 % of control (dose: 150.0 mg/kg/injection, schedule: Q04DX003 (ip), vehicle: Klucel (hydroxypropylcellulose) (HPC)).

For `Cc1cccc(C2=N/C(=C\c3cccc4ccccc34)C(=O)O2)c1`, the T/C (dose: 50.0 mg/kg/injection, schedule: Q01DX009 (ip), vehicle: saline with Tween-80) is 102 % of control; the T/C under setting [13] is 91 % of control; the T/C under setting [14] is 91 % of control.

For the compound `CCOC(=O)CC(CC(=O)OCC)C(=O)OCC`, the T/C (dose: 100.0 mg/kg/injection, schedule: Q04DX002 (ip), vehicle: saline) is 104 % of control; the T/C (dose: 200.0 mg/kg/injection, schedule: Q04DX002 (ip), vehicle: saline) was 96 % of control; the T/C (dose: 400.0 mg/kg/injection, schedule: Q04DX002 (ip), vehicle: saline) is 107 % of control.

As to `S=C(S)NCCCNC(=S)S`, the T/C was 98 % of control and 103 % of control under setting [4]; 95 % of control and 100 % of control under setting [5]; 95 % of control under setting [6].

Take `Cc1coc2c1CC1(C)C(CCC(O)C1C)C2` (stereo not drawn): the T/C reads like this: under setting [4], 97 % of control; under setting [5], 100 % of control; under setting [6], 103 % of control.

For the compound `COC(=O)/C=C(\C)C(C)=Nc1ccccc1`, the T/C under setting [10] was 106 % of control and the T/C under setting [11] is 106 % of control.

For the compound `CC(=O)Oc1c2ccsc2cc2sccc12`, the T/C was 96 % of control (dose: 100.0 mg/kg/injection, schedule: Q01DX001 (ip), vehicle: saline with Tween-80); 94 % of control (dose: 200.0 mg/kg/injection, schedule: Q01DX001 (ip), vehicle: saline with Tween-80); 94 % of control (dose: 400.0 mg/kg/injection, schedule: Q01DX001 (ip), vehicle: saline with Tween-80).

For the compound `O=C(Nc1ccccc1Cl)OCC#CCOC(=O)Nc1ccccc1Cl`, the T/C by setting is: under setting [10], 102 % of control; under setting [11], 93 % of control; (dose: 400.0 mg/kg/injection, schedule: Q04DX003 (ip), vehicle: saline with Tween-80) 91 % of control.

`Cn1c(=O)c2ccc[n+]([O-])c2n(C)c1=O`: the T/C under setting [12] is 101 % of control; the T/C under setting [15] is 103 % of control; the T/C under setting [16] is 108 % of control; the T/C under setting [17] was 96 % of control; the T/C under setting [18] is 105 % of control; the T/C under setting [19] is 107 % of control.

In the case of `CC(=O)c1cc([N+](=O)[O-])ccc1O`, the T/C is 90 % of control under setting [4], 97 % of control under setting [5] and 90 % of control under setting [6].

For the compound `Cc1cc(C)c(NC(=O)Nc2ccc(Cl)cc2)c(C)c1`, the T/C is, setting by setting: under setting [12], 92 % of control; under setting [15], 100 % of control; under setting [16], 92 % of control; under setting [17], 97 % of control; under setting [18], 96 % of control; under setting [19], 97 % of control.

Turning to `CCC[CH2][Sn]([CH2]CCC)([n]1cncn1)[n]1cncn1`, the T/C is, setting by setting: (dose: 3.13 mg/kg/injection, schedule: Q04DX003 (ip), vehicle: saline with Tween-80) 101 % of control; (dose: 6.25 mg/kg/injection, schedule: Q04DX002 (ip), vehicle: saline with Tween-80) 104 % of control; (dose: 6.25 mg/kg/injection, schedule: Q04DX003 (ip), vehicle: saline with Tween-80) 101 % of control; (dose: 12.5 mg/kg/injection, schedule: Q04DX002 (ip), vehicle: saline with Tween-80) 104 % of control; (dose: 12.5 mg/kg/injection, schedule: Q04DX003 (ip), vehicle: saline with Tween-80) 95 % of control; (dose: 25.0 mg/kg/injection, schedule: Q04DX002 (ip), vehicle: saline with Tween-80) 93 % of control.

Turning to `CCCCCCCC/C=C\CCCCCCCC(=O)OCC1CCCO1` (stereo not drawn), the T/C is, setting by setting: under setting [13], 95 % of control; under setting [14], 90 % of control; (dose: 400.0 mg/kg/injection, schedule: Q01DX009 (ip), vehicle: saline with Tween-80) 92 % of control.

`COc1cc(C=Nc2cc(Br)c(OC)c(Br)c2)ccc1N(CCCl)CCCl`: the T/C reads like this: (dose: 19.0 mg/kg/injection, schedule: Q01DX001 (ip), vehicle: carboxymethylcellulose (CMC)) 118 % of control; (dose: 29.0 mg/kg/injection, schedule: Q01DX001 (ip), vehicle: carboxymethylcellulose (CMC)) 118 % of control; (dose: 150.0 mg/kg/injection, schedule: Q01DX001 (ip), vehicle: carboxymethylcellulose (CMC)) 150 % of control; under setting [9], 104 % of control.
